Laboratory results: PubChem BioAssay (NCI)
Several values for one entry are separate records, joined by “and”; a condition that tells them apart may be missing. Equal entries are not always repeated.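 96-well plates; 48 h exposure; 5 concentrations. Endpoints by linear interpolation between flanking doses. Not reached: highest tested concentration assigned. Abbreviation: GI50, concentration required for 50% inhibition of growth. Definition used: TGI = concentration required for complete inhibition of growth.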

Key:
Assay in all cases: NCI-60 cell line screen, 48 h
TK-10 renal = test system: TK-10 renal
M14 melanoma = test system: M14 melanoma
BT-549 breast = test system: BT-549 breast
MOLT-4 leukemia = test system: MOLT-4 leukemia
A549 NSCLC = test system: A549 NSCLC
MCF7 breast = test system: MCF7 breast
RPMI-8226 leukemia = test system: RPMI-8226 leukemia
PC-3 prostate = test system: PC-3 prostate
MDA-MB-435 = test system: MDA-MB-435
HT29 colon = test system: HT29 colon

Row | SMILES | GI50 (TK-10 renal) | TGI (TK-10 renal) | GI50 (M14 melanoma) | TGI (M14 melanoma) | GI50 (BT-549 breast) | TGI (BT-549 breast) | GI50 (MOLT-4 leukemia) | TGI (MOLT-4 leukemia) | GI50 (A549 NSCLC) | TGI (A549 NSCLC) | GI50 (MCF7 breast) | TGI (MCF7 breast) | GI50 (RPMI-8226 leukemia) | TGI (RPMI-8226 leukemia) | GI50 (PC-3 prostate) | TGI (PC-3 prostate) | GI50 (MDA-MB-435) | TGI (MDA-MB-435) | GI50 (HT29 colon) | TGI (HT29 colon)
1 | NC(=O)C1c2ccccc2C=Cc2ccccc21 | > 100 µM | > 100 µM | > 100 µM | > 100 µM | > 100 µM | > 100 µM | > 100 µM | > 100 µM | > 100 µM | > 100 µM | > 100 µM | > 100 µM | > 100 µM | > 100 µM | > 100 µM | > 100 µM | 73.3 µM | > 100 µM | > 100 µM | > 100 µM
2 | NC(=O)/C(=C\c1ccncc1)c1cccc2ccccc12 | – | > 100 µM | – | > 100 µM | – | > 100 µM | – | > 100 µM | – | > 100 µM | – | > 100 µM | – | > 100 µM | – | > 100 µM | – | > 100 µM | – | > 100 µM
3 | O=C(CSc1nc2ccccc2nc1-c1ccccc1)Nc1ccc(Cl)cc1 | 35.9 µM | > 100 µM | 23.7 µM | > 100 µM | 33.5 µM | > 100 µM | > 100 µM | > 100 µM | 32 µM | > 100 µM | 44.3 µM | > 100 µM | 92.3 µM | > 100 µM | 30.6 µM | > 100 µM | 29.8 µM | > 100 µM | 25.1 µM | > 100 µM
4 | CN[C@@H](C)C(=O)N[C@H]1CN(C(=O)CC(C)C)CC[C@H]2CC[C@@H](C(=O)NC(c3ccccc3)c3ccccc3)N2C1=O | > 100 µM | > 100 µM | > 100 µM | > 100 µM | 0.231 µM | > 100 µM | > 86.7 µM | > 100 µM | > 100 µM | > 100 µM | > 100 µM | > 100 µM | > 74.9 µM | > 100 µM | > 100 µM | > 100 µM | > 100 µM | > 100 µM | 53.2 µM | > 100 µM
5 | CNC(=O)c1c(NC(=O)c2ccc(C(F)(F)F)cc2)sc2c1CCC(=O)C2 | 0.815 µM | 21.2 µM | 0.508 µM | 3.77 µM | 0.366 µM | 3.72 µM | 0.47 µM | 4.01 µM | 1.02 µM | 8.49 µM | 0.837 µM | 4.13 µM | 0.272 µM | 0.884 µM | 0.186 µM | 1.35 µM | 0.818 µM | 3.55 µM | 0.555 µM | 5.27 µM
6 | NC(=NCCCC1(c2ccccc2)CCCC1)Nc1ccc(Cl)cc1 | 1.38 µM | 2.75 µM | 1.59 µM | 3.27 µM | 1.74 µM | 3.27 µM | 1.58 µM | 4.11 µM | 1.89 µM | 3.61 µM | 1.65 µM | 3.19 µM | 1.89 µM | 4.08 µM | 1.6 µM | 3.12 µM | 1.77 µM | 3.21 µM | 1.72 µM | 3.17 µM
7 | N=C(N)/N=C(\N)c1c(-c2cc(O)ccc2O)nc2sccn12 | 17.9 µM | 36.4 µM | 19.8 µM | 37.9 µM | 30.4 µM | 84.3 µM | 29.4 µM | > 100 µM | > 100 µM | > 100 µM | 37.8 µM | > 100 µM | 21.9 µM | 49.5 µM | 26.7 µM | > 100 µM | 18 µM | 35.3 µM | 36.5 µM | > 100 µM
8 | C#CCSc1n[nH]c(-c2ccco2)n1 | – | > 100 µM | – | > 100 µM | – | > 100 µM | – | > 100 µM | – | > 100 µM | – | > 100 µM | – | > 100 µM | – | > 100 µM | – | > 100 µM | – | > 100 µM
9 | C[C@H](N)C(=O)N[C@@H]1[C@H]2C(=C(O)C[C@@H](O)[C@@H]2O)C(=O)O[C@]1(C)C(Cl)Cl | 0.685 µM | 6.92 µM and 2.06 µM | 0.258 µM | 1.49 µM and 0.507 µM | 0.315 µM | 2.57 µM and 1.53 µM | 0.186 µM and 0.13 µM | 3.79 µM and 0.564 µM | 0.271 µM | 4.92 µM and 2.81 µM | – | 1.52 µM | 0.261 µM and 0.161 µM | 2.57 µM and 2.35 µM | – | 3.89 µM and 1.37 µM | 0.309 µM | 3.42 µM and 0.86 µM | 0.282 µM | 1.69 µM and 1.3 µM
10 | CN1CCC(CNc2ccc3ncc(-c4cccc(OC(F)(F)F)c4)n3n2)CC1 | 2.36 µM and 2.16 µM | 8.52 µM and > 10 µM | 1.74 µM and 1.48 µM | 3.5 µM and 3.15 µM | 2.45 µM and 4.35 µM | 10.9 µM and > 10 µM | 2.12 µM and 1.45 µM | 9.15 µM and 5.73 µM | 1.85 µM and 2.3 µM | 4.97 µM and > 10 µM | 1.61 µM and 1.81 µM | 3.25 µM and 5.46 µM | 2.41 µM and 1.91 µM | 7.18 µM and 5.36 µM | 1.67 µM and 2.41 µM | 7.13 µM and > 10 µM | 1.42 µM and 1.54 µM | 2.96 µM and 3.4 µM | 1.75 µM and 1.85 µM | 4.49 µM and 5.15 µM
11 | O=C1/C=C/[C@@H](O)[C@@H]2C[C@@H](O)C[C@H]2/C=C/CCC[C@H](CCc2ccc(C(F)(F)F)cc2)O1 | 0.449 µM | 5.47 µM | 0.247 µM | 11.9 µM | 0.355 µM | 10.7 µM | 0.32 µM | 0.832 µM | 0.305 µM | > 100 µM | 0.197 µM | 0.457 µM | 0.282 µM | 0.806 µM | 0.401 µM | > 83.3 µM | 0.243 µM | > 72.1 µM | 0.127 µM | 2.1 µM
12 | COc1ccc(-c2nsc3c2NC(=O)CC3c2ccc(F)cc2)cc1 (stereo not drawn) | 6.88 µM | > 100 µM | 3.74 µM | > 100 µM | 7.72 µM | > 100 µM | 0.577 µM | > 100 µM | 4.58 µM | > 100 µM | 3.29 µM | > 100 µM | 4.94 µM | > 100 µM | 3.33 µM | > 100 µM | 0.513 µM | 2.43 µM | 2.84 µM | 27.6 µM
13 | CC1=C(C(=O)Nc2ccccc2C)C(c2ccc(C3C(C(=O)Nc4ccccc4C)=C(C)NC(C)=C3C(=O)Nc3ccccc3C)cc2)C(C(=O)Nc2ccccc2C)=C(C)N1 | – | 24.2 µM | – | 8.23 µM | – | 11.5 µM | – | 9.28 µM | – | 27.8 µM | – | 19.5 µM | – | 7.85 µM | – | 16.1 µM | – | 14.3 µM | – | 4.62 µM
